The numbers were not newly measured in patent EP4656183A1, “TIRZEPATIDE COMPOSITIONS AND PREPARATION METHOD” (Galenicum Health SLU, priority 2024, dated 2025), which cites them from elsewhere.

The conditions of the data set: buffer; several values = successive pKa values.

In the case of `O=S(=O)(O)CCN1CCN(CCO)CC1` [HEPES], the pKa was ~ 7.5.
